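These data come from cells grown in 96-well plates and exposed to compound for 48 hours at five concentrations. GI50: concentration for 50% inhibition of growth.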 The source made the active and inactive calls. Cut-off read from the data, not from the text of the source: active = GI50 up to about 1.1 µM and inactive = higher.
Columns and labels:
Experiment in all cases: inhibition of tumour cell growth, NCI panel, 48 h
UO-31 = tested on: UO-31
U-251 = tested on: U-251
M19-MEL = tested on: M19-MEL
A549 = tested on: A549
OVCAR-5 = tested on: OVCAR-5
HCT-15 = tested on: HCT-15
NCI-H460 = tested on: NCI-H460
RPMI-8226 = tested on: RPMI-8226
LOX IMVI = tested on: LOX IMVI
DMS-273 = tested on: DMS-273
NCI-H23 = tested on: NCI-H23
HOP-18 = tested on: HOP-18
COLO 205 = tested on: COLO 205
MOLT-4 = tested on: MOLT-4
HOP-62 = tested on: HOP-62
A498 = tested on: A498
SK-MEL-28 = tested on: SK-MEL-28
SK-MEL-2 = tested on: SK-MEL-2
KM-20L2 = tested on: KM-20L2
SN12C = tested on: SN12C
SNB-19 = tested on: SNB-19
SK-MEL-5 = tested on: SK-MEL-5
HCT-116 = tested on: HCT-116
EKVX = tested on: EKVX
M14 = tested on: M14
KM12 = tested on: KM12
SW-620 = tested on: SW-620
SNB-78 = tested on: SNB-78
DMS-114 = tested on: DMS-114
HCC 2998 = tested on: HCC 2998
SF-539 = tested on: SF-539
NCI-H522 = tested on: NCI-H522
Malme-3M = tested on: Malme-3M
SF-268 = tested on: SF-268
TK-10 = tested on: TK-10
UACC-62 = tested on: UACC-62
SF-295 = tested on: SF-295
SK-OV-3 = tested on: SK-OV-3
786-0 = tested on: 786-0
RXF 393 = tested on: RXF 393
OVCAR-3 = tested on: OVCAR-3
ACHN = tested on: ACHN
K562 = tested on: K562
CCRF-CEM = tested on: CCRF-CEM
SNB-75 = tested on: SNB-75
SR = tested on: SR
OVCAR-4 = tested on: OVCAR-4
LXFL 529 = tested on: LXFL 529
HT-29 = tested on: HT-29
UACC-257 = tested on: UACC-257
CAKI-1 = tested on: CAKI-1
OVCAR-8 = tested on: OVCAR-8
DLD-1 = tested on: DLD-1
NCI-H226 = tested on: NCI-H226
MCF7 = tested on: MCF7
MDA-MB-435 = tested on: MDA-MB-435
MDA-MB-231 = tested on: MDA-MB-231
BT-549 = tested on: BT-549
T47D = tested on: T47D
NCI/ADR-RES = tested on: NCI/ADR-RES
DU-145 = tested on: DU-145
PC-3 = tested on: PC-3
IGROV-1 = tested on: IGROV-1
HOP-92 = tested on: HOP-92
Hs-578T = tested on: Hs-578T
MDA-N = tested on: MDA-N
HL-60 = tested on: HL-60

C/N=C(\S)N/N=C/C(C)=N/N/C(S)=N/C was tested, and the GI50 (UO-31) was > 100 µM (inactive), the GI50 (U-251) was > 100 µM (inactive) and the GI50 (M19-MEL) was > 100 µM (inactive). The GI50 (A549) was > 100 µM (inactive), the GI50 (OVCAR-5) was 0.843 µM (active) and the GI50 (HCT-15) was over 100 µM. For the same compound, the GI50 (NCI-H460) was > 100 µM (inactive), the GI50 (RPMI-8226) was 0.583 µM (active) and the GI50 (LOX IMVI) was > 100 µM (inactive). For the same compound, the GI50 (DMS-273) was > 100 µM (inactive), the GI50 (NCI-H23) was > 100 µM (inactive) and the GI50 (HOP-18) was > 100 µM (inactive). For the same compound, the GI50 (COLO 205) was > 100 µM (inactive), the GI50 (MOLT-4) was 0.323 µM (active) and the GI50 (HOP-62) was > 100 µM (inactive). The GI50 (A498) was 48.2 µM (inactive), the GI50 (SK-MEL-28) was > 100 µM (inactive) and the GI50 (SK-MEL-2) was > 100 µM (inactive). For the same compound, the GI50 (KM-20L2) was 0.631 µM (active), the GI50 (SN12C) was > 100 µM (inactive) and the GI50 (SNB-19) was > 100 µM (inactive). For the same compound, the GI50 (SK-MEL-5) was > 100 µM (inactive), the GI50 (HCT-116) was 0.0489 µM (active) and the GI50 (EKVX) was > 100 µM (inactive). For the same compound, the GI50 (M14) was > 100 µM (inactive), the GI50 (KM12) was > 100 µM (inactive) and the GI50 (SW-620) was > 100 µM (inactive). For the same compound, the GI50 (SNB-78) was > 100 µM (inactive), the GI50 (DMS-114) was 0.0414 µM (active) and the GI50 (HCC 2998) was > 100 µM (inactive). For the same compound, the GI50 (SF-539) was > 100 µM (inactive), the GI50 (NCI-H522) was > 100 µM (inactive) and the GI50 (Malme-3M) was > 100 µM (inactive). The GI50 (SF-268) was > 100 µM (inactive), the GI50 (TK-10) was > 100 µM (inactive) and the GI50 (UACC-62) was > 100 µM (inactive). For the same compound, the GI50 (SF-295) was > 100 µM (inactive), the GI50 (SK-OV-3) was > 100 µM (inactive) and the GI50 (786-0) was > 100 µM (inactive). For the same compound, the GI50 (RXF 393) was > 100 µM (inactive), the GI50 (OVCAR-3) was > 100 µM (inactive) and the GI50 (ACHN) was > 100 µM (inactive).

O=c1[nH]c(=O)n(C2CC(O)C(CO)O2)cc1C#Cc1c(F)c(F)c(F)c(F)c1F (stereo not given) was tested, and the GI50 (UO-31) was > 100 µM (inactive), the GI50 (U-251) was > 100 µM (inactive) and the GI50 (M19-MEL) was > 100 µM (inactive). The GI50 (A549) was > 100 µM (inactive), the GI50 (OVCAR-5) was > 100 µM (inactive) and the GI50 (HCT-15) was over 100 µM. For the same compound, the GI50 (NCI-H460) was > 100 µM (inactive), the GI50 (K562) was > 100 µM (inactive) and the GI50 (CCRF-CEM) was > 100 µM (inactive). The GI50 (RPMI-8226) was > 100 µM (inactive), the GI50 (LOX IMVI) was > 100 µM (inactive) and the GI50 (SNB-75) was > 100 µM (inactive). The GI50 (SR) was > 100 µM (inactive), the GI50 (DMS-273) was > 100 µM (inactive) and the GI50 (OVCAR-4) was > 100 µM (inactive). For the same compound, the GI50 (NCI-H23) was > 100 µM (inactive), the GI50 (COLO 205) was > 100 µM (inactive) and the GI50 (MOLT-4) was > 100 µM (inactive). For the same compound, the GI50 (HOP-62) was > 100 µM (inactive), the GI50 (SK-MEL-28) was > 100 µM (inactive) and the GI50 (LXFL 529) was > 100 µM (inactive). The GI50 (SK-MEL-2) was > 100 µM (inactive), the GI50 (KM-20L2) was > 100 µM (inactive) and the GI50 (SN12C) was > 100 µM (inactive). For the same compound, the GI50 (SNB-19) was > 100 µM (inactive), the GI50 (SK-MEL-5) was > 100 µM (inactive) and the GI50 (HCT-116) was > 100 µM (inactive). For the same compound, the GI50 (HT-29) was > 100 µM (inactive), the GI50 (EKVX) was > 100 µM (inactive) and the GI50 (M14) was > 100 µM (inactive). For the same compound, the GI50 (KM12) was > 100 µM (inactive), the GI50 (SW-620) was > 100 µM (inactive) and the GI50 (UACC-257) was > 100 µM (inactive). For the same compound, the GI50 (DMS-114) was > 100 µM (inactive), the GI50 (HCC 2998) was > 100 µM (inactive) and the GI50 (CAKI-1) was > 100 µM (inactive). The GI50 (SF-539) was > 100 µM (inactive), the GI50 (NCI-H522) was > 10 µM (inactive) and the GI50 (OVCAR-8) was > 100 µM (inactive). For the same compound, the GI50 (Malme-3M) was > 100 µM (inactive), the GI50 (SF-268) was > 100 µM (inactive) and the GI50 (UACC-62) was > 100 µM (inactive). The GI50 (SF-295) was > 100 µM (inactive), the GI50 (SK-OV-3) was > 100 µM (inactive) and the GI50 (786-0) was > 100 µM (inactive). For the same compound, the GI50 (DLD-1) was > 100 µM (inactive), the GI50 (OVCAR-3) was > 100 µM (inactive) and the GI50 (ACHN) was > 100 µM (inactive). The GI50 (NCI-H226) was > 100 µM (inactive).

For CCCCCCNCCCNc1c2ccccc2nc2cccc([N+](=O)[O-])c12, the GI50 (UO-31) was 0.122 µM (active), the GI50 (U-251) was 0.0118 µM (active) and the GI50 (MCF7) was 0.00376 µM (active). For the same compound, the GI50 (A549) was 0.00409 µM (active), the GI50 (OVCAR-5) was 0.0315 µM (active) and the GI50 (HCT-15) was 0.0615 µM. For the same compound, the GI50 (NCI-H460) was 0.00269 µM (active), the GI50 (MDA-MB-435) was 0.0103 µM (active) and the GI50 (K562) was 0.00376 µM (active). For the same compound, the GI50 (CCRF-CEM) was 0.0229 µM (active), the GI50 (RPMI-8226) was 0.00247 µM (active) and the GI50 (MDA-MB-231) was 0.0229 µM (active). The GI50 (LOX IMVI) was 0.0193 µM (active), the GI50 (SNB-75) was 0.0485 µM (active) and the GI50 (SR) was 0.0256 µM (active). The GI50 (OVCAR-4) was 0.0147 µM (active), the GI50 (NCI-H23) was 0.0116 µM (active) and the GI50 (BT-549) was 0.11 µM (active). The GI50 (COLO 205) was 0.00347 µM (active), the GI50 (MOLT-4) was 0.00658 µM (active) and the GI50 (HOP-62) was 0.0245 µM (active). For the same compound, the GI50 (A498) was 0.164 µM (active), the GI50 (SK-MEL-28) was 0.158 µM (active) and the GI50 (T47D) was 0.0369 µM (active). The GI50 (SK-MEL-2) was 0.0181 µM (active), the GI50 (SN12C) was 0.0173 µM (active) and the GI50 (SNB-19) was 0.0845 µM (active). For the same compound, the GI50 (NCI/ADR-RES) was 0.33 µM (active), the GI50 (SK-MEL-5) was 0.0103 µM (active) and the GI50 (DU-145) was 0.00537 µM (active). The GI50 (PC-3) was 0.0163 µM (active), the GI50 (HCT-116) was 0.0352 µM (active) and the GI50 (HT-29) was 0.00528 µM (active). For the same compound, the GI50 (EKVX) was 0.0246 µM (active), the GI50 (IGROV-1) was 0.00873 µM (active) and the GI50 (HOP-92) was 0.0211 µM (active). The GI50 (M14) was 0.0119 µM (active), the GI50 (KM12) was 0.0127 µM (active) and the GI50 (SW-620) was 0.00481 µM (active). The GI50 (UACC-257) was 0.101 µM (active), the GI50 (HCC 2998) was 0.00665 µM (active) and the GI50 (CAKI-1) was 0.0548 µM (active). For the same compound, the GI50 (SF-539) was 0.116 µM (active), the GI50 (NCI-H522) was 0.0121 µM (active) and the GI50 (Hs-578T) was 0.0448 µM (active). For the same compound, the GI50 (OVCAR-8) was 0.012 µM (active), the GI50 (Malme-3M) was 0.0206 µM (active) and the GI50 (SF-268) was 0.0163 µM (active). The GI50 (TK-10) was 0.0621 µM (active), the GI50 (UACC-62) was 0.0279 µM (active) and the GI50 (MDA-N) was 0.0118 µM (active). For the same compound, the GI50 (SF-295) was 0.0188 µM (active), the GI50 (HL-60) was 0.0151 µM (active) and the GI50 (SK-OV-3) was 0.051 µM (active). For the same compound, the GI50 (786-0) was 0.00948 µM (active), the GI50 (RXF 393) was 0.0148 µM (active) and the GI50 (OVCAR-3) was 0.0171 µM (active). For the same compound, the GI50 (ACHN) was 0.0132 µM (active) and the GI50 (NCI-H226) was 0.0547 µM (active).

Reference: ChEMBL document CHEMBL1201862, “PubChem BioAssay data set” (2004)
